From patent publication US12612384B2, “Heterocyclic CYP4A inhibitor compounds and compositions thereof” (MBD CO., LTD., priority 2021, dated 2026)
Like-named read-outs stand apart in the source and are kept apart here.

Target: T1, CYP4A (Homo sapiens, UniProt Q02928)
T1 construct: purchased; host or cells: bacterial membranes ('bactosome')
T1 sequence (Q02928 5-519): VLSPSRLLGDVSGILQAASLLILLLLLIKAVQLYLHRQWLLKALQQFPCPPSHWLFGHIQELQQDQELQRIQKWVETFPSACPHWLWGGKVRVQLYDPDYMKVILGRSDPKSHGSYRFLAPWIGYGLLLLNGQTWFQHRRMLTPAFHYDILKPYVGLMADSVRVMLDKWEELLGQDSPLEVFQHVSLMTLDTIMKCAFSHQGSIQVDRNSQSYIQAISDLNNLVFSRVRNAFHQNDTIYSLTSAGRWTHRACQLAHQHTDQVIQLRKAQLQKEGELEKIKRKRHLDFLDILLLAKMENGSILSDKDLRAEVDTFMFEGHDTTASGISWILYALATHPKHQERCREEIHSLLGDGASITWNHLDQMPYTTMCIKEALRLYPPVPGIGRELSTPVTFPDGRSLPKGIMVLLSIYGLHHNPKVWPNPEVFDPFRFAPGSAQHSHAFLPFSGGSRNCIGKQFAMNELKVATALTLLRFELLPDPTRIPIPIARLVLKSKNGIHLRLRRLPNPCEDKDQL
Assay: CYP4A enzyme assay (luminescence, Luciferin-ME)
Assay type: biochemical
Conditions: Compound concentration 5 μM
Procedure: The CYP4A inhibitory activity of the above compounds of the examples was measured. The reagents used in the experiment were commercially available, and were prepared and used when necessary. The device used for measuring activity was SpectraMax of MOLECULAR DEVICES.
CYP4A bactosome and the compounds to be evaluated (5 μM) were each diluted in assay buffer (100 mM KPO4, 0.1% BSA, 1 mM DTT) and mixed in a 384 well plate (white opaque polystyrene nontreated flat-bottom well), and reaction was carried out at room temperature for 15 minutes. To induce CYP4A reaction, 5 mM Luciferin-ME, NADPH Regeneration system (10× sol. A, 20× sol. B in assay buffer, Cat. Number: V865B, Promega) were sequentially added and mixed, and the reaction was carried out at room temperature for 30 minutes. Then, Luciferin Detection reagent was added thereto and reacted at room temperature for 15 minutes to stop the CYP4A reaction and induce a luminescence reaction. Finally, after measuring the luminescence value using a microplate reader, the inhibition of CYP4A activity by the compounds was evaluated by comparing the luminescence value from each well.

[1] = Greater than 90%, read-out: % Inhibition Greater than 90%
[2] = 50%-70%, read-out: % Inhibition 50%-70%

Compound | inhibition at 5 µM [1] [%] | further results
CC(=O)Nc1cccc(S(=O)(=O)N2CC(C(=O)N3CCN(c4ccnc5cc(F)ccc45)CC3)C2)c1 [Example 73, N-(3-((3-(4-(7-fluoroquinolin-4-yl)piperazine-1-carbonyl)azetidin-1-yl)sulfonyl)phenyl)acetamide] | > 90 | 
O=C(C1CCN(S(=O)(=O)c2ccc([N+](=O)[O-])cc2)CC1)N1CCN(c2ccnc3cc(F)ccc23)CC1 [Example 54, (4-(7-fluoroquinolin-4-yl)piperazin-1-yl)(1-((4-nitrophenyl)sulfonyl)piperidin-4-yl)methanone] | > 90 | 
O=C(C1CN(S(=O)(=O)c2ccc(-c3ccncc3)cc2)C1)N1CCN(c2ccnc3cc(F)ccc23)CC1 [Example 69, (4-(7-fluoroquinolin-4-yl)piperazin-1-yl)(1-((4-(pyridin-4-yl)phenyl)sulfonyl)azetidin-3-yl)methanone] | > 90 | 
CC(=O)Nc1ccc(S(=O)(=O)N2CCC(C(=O)N3CCN(c4ccnc5ccccc45)CC3)C2)cc1 (stereo not shown) [Example 21, N-(4-((3-(4-(quinolin-4-yl)piperazine-1-carbonyl)pyrrolidin-1-yl)sulfonyl)phenyl)acetamide] | > 90 | 
O=C([C@@H]1CCN(S(=O)(=O)c2ccc(-c3ccncc3)cc2)C1)N1CCN(c2ccnc3cc(F)ccc23)CC1 [Example 18, (R)-(4-(7-fluoroquinolin-4-yl)piperazin-1-yl)(1-((4-(pyridin-4-yl)phenyl)sulfonyl)pyrrolidin-3-yl)methanone] | > 90 | 
O=C(C1CN(S(=O)(=O)c2ncn[nH]2)C1)N1CCN(c2ccnc3cc(F)ccc23)CC1 [Example 137, (1-((1H-1,2,4-triazol-5-yl)sulfonyl)azetidin-3-yl)(4-(7-fluoroquinolin-4-yl)piperazin-1-yl)methanone] | > 90 | 
O=C(c1ccccc1)N1CCCC(C(=O)N2CCN(c3ccnc4ccccc34)CC2)C1 (stereo not shown) [Example 113, (1-benzoylpiperidin-3-yl)(4-(quinolin-4-yl)piperazin-1-yl)methanone] |  | inhibition at 5 µM [2]: 50 to 70%
Cc1nc(S(=O)(=O)N2CC[C@H](C(=O)N3CCN(c4ccnc5cc(F)ccc45)CC3)C2)n[nH]1 [Example 166, (S)-(4-(7-fluoroquinolin-4-yl)piperazin-1-yl)(1-((5-methyl-1H-1,2,4-triazol-3-yl)sulfonyl)pyrrolidin-3-yl)methanone] | > 90 | 
O=C(C1CCCN(S(=O)(=O)c2cccnc2)C1)N1CCN(c2cc(C(F)(F)F)nc3ccccc23)CC1 (stereo not shown) [Example 129, (1-(pyridin-3-ylsulfonyl)piperidin-3-yl)(4-(2-(trifluoromethyl)quinolin-4-yl)piperazin-1-yl)methanone] |  | inhibition at 5 µM [2]: 50 to 70%
CN(C)c1ccc(S(=O)(=O)N2CCC(C(=O)N3CCN(c4ccnc5cc(F)ccc45)CC3)C2)cc1 (stereo not shown) [Example 3, (1-((4-(dimethylamino)phenyl)sulfonyl)pyrrolidin-3-yl)(4-(7-fluoroquinolin-4-yl)piperazin-1-yl)methanone] | > 90 | 
O=C(C1CCCN(S(=O)(=O)c2ccc(O)cc2)C1)N1CCN(c2ncnc3ccccc23)CC1 (stereo not shown) [Example 78, (1-((4-hydroxyphenyl)sulfonyl)piperidin-3-yl)(4-(quinazolin-4-yl)piperazin-1-yl)methanone] |  | inhibition at 5 µM (70%-90%, read-out: % Inhibition 70%-90%): 70 to 90%
O=C(C1CCN(S(=O)(=O)c2ccc(-c3ccc(O)cc3)nc2)C1)N1CCN(c2ccnc3ccccc23)CC1 (stereo not shown) [Example 28, (1-((6-(4-hydroxyphenyl)pyridin-3-yl)sulfonyl)pyrrolidin-3-yl)(4-(quinolin-4-yl)piperazin-1-yl)methanone] | > 90 | 
Cn1ccnc1S(=O)(=O)N1CCCC(C(=O)N2CCN(c3ccnc4cc(F)ccc34)CC2)C1 (stereo not shown) [Example 118, (4-(7-fluoroquinolin-4-yl)piperazin-1-yl)(1-(1-methyl-1H-imidazol-2-ylsulfonyl)piperidin-3-yl)methanone] | > 90 | 
